One may read the EC50 as the concentration at which the effect is half-maximal.

The results in this text go back to patent US11377425B1, “Small molecule modulators of IL-17” (LEO Pharma A/S, priority 2018, dated 2022).

Molecules are shown by their SMILES.

This experiment concerns the target T1, human IL-17AA (Homo sapiens, UniProt Q16552).
T1 construct: host or cells: HEK (human embryonic kidney) cells
T1 sequence (Q16552 24-155): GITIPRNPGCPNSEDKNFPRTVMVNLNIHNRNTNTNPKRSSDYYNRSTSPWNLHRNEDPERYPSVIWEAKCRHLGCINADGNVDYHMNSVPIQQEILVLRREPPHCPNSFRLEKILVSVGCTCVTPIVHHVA
Description: IL-8 release assay in human epithelial keratinocytes adult (HEKa). In kind it is cell-based. Conditions: HEKa cells, 3 ng/mL HEK-human IL-17AA + 10 ng/mL human TNFalpha; read-out: Rel EC50 IL-8 release assay. In short, it runs like this:
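Adult human epidermal keratinocytes stimulated 68-72 h at 37 °C with 3 ng/mL HEK-derived human IL-17AA plus 10 ng/mL TNF-alpha (final) in the presence of compound; TNF-alpha alone defines 100% inhibition. Secreted IL-8 measured by HTRF as percent of controls; relative IC50/Emax from four-parameter fit (r^2>0.9), cytotoxicity by PrestoBlue.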

With `Cn1cncc1-c1ccc(NC(=O)[C@@H](NC(=O)OC(C)(C)C)C(C2CCCCC2)C2CCCC2)cc1` (single isomer, unassigned) [Example 313], the EC50 was over 1000 nM.
Take `Cc1ncn(C)c1-c1ccc(NC(=O)C(NC(=O)c2ccnn2C)C2CCC(F)(F)CC2)cc1` (single isomer, unassigned) [Example 333, N-[1-(4,4-difluorocyclohexyl)-2-[4-(3,5-dimethylimidazol-4-yl)anilino]-2-oxo-ethyl]-2-methyl-pyrazole-3-carboxamide]: the concentration giving a half-maximal response (EC50) is over 1000 nM.
The value for `Cc1ncn(C)c1-c1ccc(NC(=O)C(NC(=O)c2ccnn2C)C2CCC(F)(F)CC2)cc1` (single isomer, unassigned) [Example 334, N-[1-(4,4-difluorocyclohexyl)-2-[4-(3,5-dimethylimidazol-4-yl)anilino]-2-oxo-ethyl]-2-methyl-pyrazole-3-carboxamide] was over 1000 nM; that for `Cn1cncc1-c1ccc(NC(=O)[C@@H](NC(=O)c2ccnn2C)C(C2CCCCC2)C2CCCC2)cc1` (single isomer, unassigned) [Example 339A] was 100 to 1000 nM.
`Cn1cncc1-c1ccc(NC(=O)[C@@H](NC(=O)c2ccnn2C)C(C2CCCCC2)C2CCCC2)cc1` (single isomer, unassigned) [Example 339B]: the half-maximal effective concentration (EC50) is 100 to 1000 nM.
On to `Cn1cncc1-c1ccc(NC(=O)C(NC(=O)c2ccnn2C)C(c2cccc(Cl)c2)c2cccc(Cl)c2)cc1` (single isomer, unassigned) [Example 373A, N-(1,1-Bis(3-chlorophenyl)-3-((4-(1-methyl-1H-imidazol-5-yl)phenyl)amino)-3-oxopropan-2-yl)-1-methyl-1H-pyrazole-5-carboxamide], for which the EC50 lay in the range of 100 to 1000 nM.
Regarding `Cn1cncc1-c1ccc(NC(=O)C(NC(=O)c2ccnn2C)C(c2cccc(Cl)c2)c2cccc(Cl)c2)cc1` (single isomer, unassigned) [Example 373B, N-(1,1-Bis(3-chlorophenyl)-3-((4-(1-methyl-1H-imidazol-5-yl)phenyl)amino)-3-oxopropan-2-yl)-1-methyl-1H-pyrazole-5-carboxamide], the EC50 is over 1000 nM.
For `Cn1cncc1-c1ccc(NC(=O)C(NC(=O)c2ccnn2C)C(c2cccc(F)c2)c2cccc(F)c2)cc1` (single isomer, unassigned) [Example 374A, N-(1,1-Bis(3-Fluorophenyl)-3-((4-(1-methyl-1H-imidazol-5-yl)phenyl)amino)-3-oxopropan-2-yl)-1-methyl-1H-pyrazole-5-carboxamide], the EC50 is over 1000 nM.
With `Cn1cncc1-c1ccc(NC(=O)C(NC(=O)c2ccnn2C)C(c2cccc(F)c2)c2cccc(F)c2)cc1` (single isomer, unassigned) [Example 374B, N-(1,1-Bis(3-Fluorophenyl)-3-((4-(1-methyl-1H-imidazol-5-yl)phenyl)amino)-3-oxopropan-2-yl)-1-methyl-1H-pyrazole-5-carboxamide], the EC50 was over 1000 nM.
With `CC(C)n1nccc1C(=O)NC(C(=O)Nc1ccc(-c2c(C3CC3)n[nH]c2C2CC2)cc1)C(C1CC1)C1CC1` (single isomer, unassigned) [Example 384, N-[1-(dicyclopropylmethyl)-2-[4-(3,5-dicyclopropyl-1H-pyrazol-4-yl)anilino]-2-oxo-ethyl]-2-isopropyl-pyrazole-3-carboxamide], the EC50 lay in the range of 100 to 1000 nM.
For `CC(C)n1nccc1C(=O)NC(C(=O)Nc1ccc(-c2c(C3CC3)n[nH]c2C2CC2)cc1)C(C1CC1)C1CC1` (single isomer, unassigned) [Example 385, N-[1-(dicyclopropylmethyl)-2-[4-(3,5-dicyclopropyl-1H-pyrazol-4-yl)anilino]-2-oxo-ethyl]-2-isopropyl-pyrazole-3-carboxamide], the EC50 is under 100 nM.
In the case of `Cc1n[nH]c(C)c1-c1ccc(NC(=O)[C@@H](NC(=O)N2CCCCC2CCCO)C2CCCCC2)cc1` (single isomer, unassigned) [Example 460], the EC50 was 100 to 1000 nM.
Take `Cc1n[nH]c(C)c1-c1ccc(NC(=O)[C@@H](NC(=O)N2CCCCC2CCCO)C2CCCCC2)cc1` (single isomer, unassigned) [Example 461]: the EC50 was over 1000 nM.
With `Cc1n[nH]c(C)c1-c1ccc(NC(=O)[C@@H](NC(=O)N2CCCC2C(C)(C)O)C2CCCCC2)cc1` (single isomer, unassigned) [Example 464], the EC50 is over 1000 nM.
For `Cc1n[nH]c(C)c1-c1ccc(NC(=O)[C@@H](NC(=O)N2CCCC2C(C)(C)O)C2CCCCC2)cc1` (single isomer, unassigned) [Example 465] the value was over 1000 nM.
As for `Cc1n[nH]c(C)c1-c1ccc(NC(=O)[C@@H](NC(=O)N2CCCC2CCO)C2CCCCC2)cc1` (single isomer, unassigned) [Example 466], the 50% effective concentration (EC50) is over 1000 nM.
Turning to `Cc1n[nH]c(C)c1-c1ccc(NC(=O)[C@@H](NC(=O)N2CCCC2CCO)C2CCCCC2)cc1` (single isomer, unassigned) [Example 467], the EC50 is over 1000 nM.
With `Cc1n[nH]c(C)c1-c1ccc(NC(=O)[C@@H](NC(=O)N2CCCCC2CCO)C2CCCCC2)cc1` (single isomer, unassigned) [Example 470], the EC50 was over 1000 nM.
The value for `Cc1n[nH]c(C)c1-c1ccc(NC(=O)[C@@H](NC(=O)N2CCCCC2CCO)C2CCCCC2)cc1` (single isomer, unassigned) [Example 471] was over 1000 nM; that for `Cc1n[nH]c(C)c1-c1ccc(NC(=O)[C@@H](NC(=O)N2CCCC2CO)C2CCCCC2)cc1` (single isomer, unassigned) [Example 473] was over 1000 nM.
Take `Cc1n[nH]c(C)c1-c1ccc(NC(=O)[C@@H](NC(=O)N2CCCC2CO)C2CCCCC2)cc1` (single isomer, unassigned) [Example 474]: the EC50 is over 1000 nM.
As for `Cc1n[nH]c(C)c1-c1ccc(NC(=O)[C@@H](NC(=O)c2ccnn2C)C2CCCCC2)cc1` [Example 1, N-[(1S)-1-cyclohexyl-2-[4-(3,5-dimethyl-1H-pyrazol-4-yl)anilino]-2-oxo-ethyl]-2-methyl-pyrazole-3-carboxamide], the EC50 lay within 100 to 1000 nM.
Consider `Cc1n[nH]c(C)c1-c1ccc(NC(=O)[C@@H](NC(=O)c2ccnn2C)C(c2ccccc2)c2ccccc2)cc1` [Example 2, N-[(1S)-1-benzhydryl-2-[4-(3,5-dimethyl-1H-pyrazol-4-yl)anilino]-2-oxo-ethyl]-2-methyl-pyrazole-3-carboxamide], for which the EC50 was 100 to 1000 nM.
In the case of `Cc1n[nH]c(C)c1-c1ccc(NC(=O)[C@@H](NC(=O)c2ccnn2C)C2CCCCCC2)cc1` [Example 3, N-[(1S)-1-cycloheptyl-2-[4-(3,5-dimethyl-1H-pyrazol-4-yl)anilino]-2-oxo-ethyl]-2-methyl-pyrazole-3-carboxamide], the EC50 is under 100 nM.
Turning to `Cc1n[nH]c(C)c1-c1ccc(NC(=O)[C@@H](NC(=O)c2ccnn2C)[C@@H]2CCc3ccc(Br)cc32)cc1` [Example 4, N-[(1S)-1-[(1R)-6-bromoindan-1-yl]-2[4-(3,5-dimethyl-1H-pyrazol-4-yl)anilino]-2-oxo-ethyl]-2-methyl-pyrazole-3-carboxamide], the EC50 was in the range of 100 to 1000 nM.
On to `Cc1n[nH]c(C)c1-c1ccc(NC(=O)[C@@H](NC(=O)c2ccnn2C)[C@H]2CCc3ccc(Br)cc32)cc1` [Example 5, N-[(1S)-1-[(1S)-6-bromoindan-1-yl]-2[4-(3,5-dimethyl-1H-pyrazol-4-yl)anilino]-2-oxo-ethyl]-2-methyl-pyrazole-3-carboxamide], for which the EC50 was under 100 nM.
